Patent US6455510B1, “Chemical Compounds” (SmithKline Beecham Corporation, priority 1997, dated 2002)

Legend:
[1] = molecular target: T1, human adenosine A1 receptor (Homo sapiens, UniProt P30542); experiment: Reporter gene assay (CRE/SPAP) in CHO cells, agonist activity, adenosine A1; assay type: cell-based; conditions: CHO cells stably transfected with human adenosine A1 receptor; inhibition of forskolin-stimulated SPAP production; potency relative to NECA=1
T1 construct: expressed in transfected cells; host or cells: Chinese hamster ovary (CHO) cells containing CRE/SPAP/HYG reporter elements
T1 sequence (P30542 1-326): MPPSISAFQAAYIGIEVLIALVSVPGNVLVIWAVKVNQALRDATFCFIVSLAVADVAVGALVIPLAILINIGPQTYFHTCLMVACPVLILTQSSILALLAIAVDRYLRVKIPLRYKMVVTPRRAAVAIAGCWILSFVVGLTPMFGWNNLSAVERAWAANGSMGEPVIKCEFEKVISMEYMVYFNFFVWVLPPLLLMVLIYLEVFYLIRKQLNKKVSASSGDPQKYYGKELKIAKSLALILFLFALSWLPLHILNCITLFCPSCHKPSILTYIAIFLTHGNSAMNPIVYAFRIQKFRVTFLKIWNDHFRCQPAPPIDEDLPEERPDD
Procedure: (§1) Reporter Gene Experiments
Agonist activity was measured in Chinese hamster ovary (CHO) cells containing the CRE/SPAP/HYG (CRE=cyclic AMP response element; HYG=hygromycin resistance; SPAP=secreted placental alkaline phosphatase) reporter gene elements, which upon stimulation of cAMP levels produced SPAP. A cell line was used, which was stably transfected with either the human adenosine Al receptor or the human adenosine A3 receptor in addition to the above elements. Cells were plated out in 96-well plates in culture medium and incubated at 37° C. for 1 hour. […] 15 Min later, cAMP levels were stimulated by addition of a maximal concentration of forskolin. All cells were then incubated for a further 5 hours at 37° C., and cooled to room temperature, after which a substrate for the phosphatase (para-nitrophenol phosphate, pNPP), which is converted by SPAP to a coloured reagent) was then added and the 96-well plates were read in a plate reader. From these readings, the concentration-dependence of the inhibition by the agonist for forskolin-stimulated SPAP production can be calculated.
(§2) (ECR=equipotent concentration ratio relative to NECA=1)

[2] = molecular target: T2, human adenosine A3 receptor (Homo sapiens, UniProt P0DMS8); experiment: Reporter gene assay (CRE/SPAP) in CHO cells, agonist activity, adenosine A3; assay type: cell-based; conditions: CHO cells stably transfected with human adenosine A3 receptor; inhibition of forskolin-stimulated SPAP production; potency relative to NECA=1
T2 construct: expressed in transfected cells; host or cells: Chinese hamster ovary (CHO) cells containing CRE/SPAP/HYG reporter elements
T2 sequence (P0DMS8 1-318): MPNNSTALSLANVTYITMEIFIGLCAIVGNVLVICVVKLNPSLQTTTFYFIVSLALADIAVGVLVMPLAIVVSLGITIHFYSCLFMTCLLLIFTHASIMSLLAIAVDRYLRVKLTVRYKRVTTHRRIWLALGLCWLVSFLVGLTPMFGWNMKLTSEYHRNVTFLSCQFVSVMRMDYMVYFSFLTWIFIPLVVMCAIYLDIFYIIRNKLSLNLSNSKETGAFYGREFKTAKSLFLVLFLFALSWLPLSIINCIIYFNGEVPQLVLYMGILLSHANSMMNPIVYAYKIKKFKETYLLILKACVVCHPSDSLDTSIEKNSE
Procedure: as §1
Agonist activity was measured in Chinese hamster ovary (CHO) cells containing the CRE/SPAP/HYG (CRE=cyclic AMP response element; HYG=hygromycin resistance; SPAP=secreted placental alkaline phosphatase) reporter gene elements, which upon stimulation of cAMP levels produced SPAP. A cell line was used, which was stably transfected with either the human adenosine Al receptor or the human adenosine A3 receptor in addition to the above elements. Cells were plated out in 96-well plates in culture medium and incubated at 37° C. for 1 hour. For measurement of potency, agonists were added to the appropriate wells at a concentration range of approximately 10^−10-10^−5M. 15 Min later, cAMP levels were stimulated by addition of a maximal concentration of forskolin. All cells were then incubated for a further 5 hours at 37° C., and cooled to room temperature, after which a substrate for the phosphatase (para-nitrophenol phosphate, pNPP), which is converted by SPAP to a coloured reagent) was then added and the 96-well plates were read in a plate reader. From these readings, the concentration-dependence of the inhibition by the agonist for forskolin-stimulated SPAP production can be calculated. One of the agonists tested on each 96-well plate was the standard non-selective agonist, N-ethylcarboxamidoadenosine (NECA), and the potency of all test agonists is expressed relative to that of the NECA standard.
as §2

A1 Receptor, Reporter Gene Assay ECR (equipotent concentration ratio relative to NECA=1) [1] | A3 Receptor, Reporter Gene Assay ECR (equipotent concentration ratio relative to NECA=1) [2] | SMILES
3.51 | >353.00 | CC(C)(C)CNc1ncnc2c1ncn2[C@@H]1O[C@H](CF)[C@@H](O)[C@H]1O [Example 19, 5′-Deoxy-5′-fluoro-N-(2,2-dimethyl-propyl)-adenosine]
2.41 | >139.00 | O[C@@H]1[C@H](O)[C@@H](CF)O[C@H]1n1cnc2c(NC3CCOCC3)nc(Cl)nc21 [Example 3, 2-Chloro-5′-deoxy-5′-fluoro-N-(tetrahydro-pyran-4-yl)-adenosine]
22.30 | >353.00 | CC(F)(F)[C@H]1O[C@@H](n2cnc3c(NCC4CC4)ncnc32)[C@H](O)[C@@H]1O [Example 17, (2R,3R,4S,5S)-2-[6-(Cyclopropylmethyl-amino)-purin-9-yl]-(1,1-difluoro-ethyl)-tetrahydro-furan-3,4-diol]

SMILES | A1 Receptor, Reporter Gene Assay ECR (equipotent concentration ratio relative to NECA=1) [1] | A3 Receptor, Reporter Gene Assay ECR (equipotent concentration ratio relative to NECA=1) [2]
CCOC(=O)N1CCC(Nc2nc(Cl)nc3c2ncn3[C@@H]2O[C@H](CF)[C@@H](O)[C@H]2O)CC1 [Example 9, 4-[2-Chloro-9-(5S-fluoromethyl-3R,4S-dihydroxy-tetrahydro-furan-2R-yl)-9H-purin-6-ylamino]-piperidine-1-carboxylic acid ethyl ester] | 3.00 | >129.00
CCOC(=O)N1CCC(Nc2ncnc3c2ncn3[C@@H]2O[C@H](CF)[C@@H](O)[C@H]2O)CC1 [Example 14, 4-[9-(5S-Fluoromethyl-3R,4S-dihydroxy-tetrahydro-furan-2R-yl)-9H-purin-6-ylamino]-piperidine-1-carboxylic acid ethyl ester] | 1.68 | >435.00
